Results reported in ChEMBL document CHEMBL1148206, “Novel sesquiterpenoid matrix metalloproteinase-3 inhibitors from an acid mine waste extremophile” (J Nat Prod, 2004).
In brackets after ≈: the same amount, converted by molar mass.

Experiments:
[1] = target: Stromelysin-1 (Homo sapiens) (UniProt P08254); experiment: Inhibition of MMP3
[2] = target: T1, Caspase-1 (Homo sapiens) (UniProt P29466); experiment: Inhibition of caspase 1
T1 sequence (whole entry): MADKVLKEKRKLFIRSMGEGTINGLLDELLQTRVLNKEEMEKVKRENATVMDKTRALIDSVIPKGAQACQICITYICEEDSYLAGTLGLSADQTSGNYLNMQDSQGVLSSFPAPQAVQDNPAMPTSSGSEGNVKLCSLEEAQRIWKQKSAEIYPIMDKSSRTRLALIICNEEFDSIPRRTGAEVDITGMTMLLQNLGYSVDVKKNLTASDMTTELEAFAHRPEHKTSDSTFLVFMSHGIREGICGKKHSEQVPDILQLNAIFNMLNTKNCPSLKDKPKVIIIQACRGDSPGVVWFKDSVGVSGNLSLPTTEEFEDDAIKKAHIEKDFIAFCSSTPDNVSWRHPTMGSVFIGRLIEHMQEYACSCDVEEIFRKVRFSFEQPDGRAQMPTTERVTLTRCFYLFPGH

Chain of Stromelysin-1 (Homo sapiens) (P08254 100-477 limits assumed): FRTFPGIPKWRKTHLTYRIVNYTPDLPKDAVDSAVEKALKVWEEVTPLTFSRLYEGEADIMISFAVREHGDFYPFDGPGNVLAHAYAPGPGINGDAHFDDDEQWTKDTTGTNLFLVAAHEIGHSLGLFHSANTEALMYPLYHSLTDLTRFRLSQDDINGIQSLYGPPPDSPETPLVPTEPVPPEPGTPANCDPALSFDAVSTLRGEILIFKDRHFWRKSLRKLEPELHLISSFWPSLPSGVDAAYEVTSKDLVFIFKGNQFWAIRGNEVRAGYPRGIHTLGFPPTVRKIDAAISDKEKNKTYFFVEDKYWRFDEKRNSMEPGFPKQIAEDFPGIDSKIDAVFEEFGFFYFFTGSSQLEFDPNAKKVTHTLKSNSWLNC

MIC50 [1] [µM] | MIC50 [2] [µM] | SMILES
0.3 (≈ 0.0799 µg/mL) | 30 (≈ 7.99 µg/mL) | C=C(CCC=C(C)C)C1=C[C@@H](O)[C@](C)(O)[C@@H](O)C1=O
0.3 (≈ 0.0805 µg/mL) | 30 (≈ 8.05 µg/mL) | CC(C)=CCC/C(C)=C1\C[C@@H](O)[C@](C)(O)[C@@H](O)C1=O
0.3 (≈ 0.0805 µg/mL) | 30 (≈ 8.05 µg/mL) | C=C(CCC=C(C)C)[C@H]1C[C@@H](O)[C@](C)(O)[C@@H](O)C1=O
